In patent US9890156B2, “Bicyclic heterocycles as FGFR4 inhibitors” (Incyte Corporation, priority 2015, dated 2018):
Read-outs that look alike come from different tables or passages of the source.

Legend:
[1] = target: FGFR3 (Homo sapiens (Human), UniProt P22607); assay: FGFR Enzymatic Assay (FRET, peptide phosphorylation), FGFR3; assay type: biochemical; settings: pre-incubated for 4 hours; ATP 140 μM
[2] = target: FGFR1 (Homo sapiens (Human), UniProt P11362); assay: FGFR Enzymatic Assay (FRET, peptide phosphorylation), FGFR1; settings: read-out: FGFR1 IC50; pre-incubated for 4 hours; ATP 210 uM
[3] = target: FGFR2 (Homo sapiens (Human), UniProt P21802); assay: FGFR Enzymatic Assay (FRET, peptide phosphorylation), FGFR2; settings: read-out: FGFR2 IC50; pre-incubated for 4 hours; ATP 100 uM
[4] = target: FGFR4 (Homo sapiens (Human), UniProt P22455); assay: FGFR Enzymatic Assay (FRET, peptide phosphorylation), FGFR4
[5] = read-out: FGFR4 IC50, pre-incubated for 4 hours, ATP 600 uM

FGFR3, sequence (P22607 23-806): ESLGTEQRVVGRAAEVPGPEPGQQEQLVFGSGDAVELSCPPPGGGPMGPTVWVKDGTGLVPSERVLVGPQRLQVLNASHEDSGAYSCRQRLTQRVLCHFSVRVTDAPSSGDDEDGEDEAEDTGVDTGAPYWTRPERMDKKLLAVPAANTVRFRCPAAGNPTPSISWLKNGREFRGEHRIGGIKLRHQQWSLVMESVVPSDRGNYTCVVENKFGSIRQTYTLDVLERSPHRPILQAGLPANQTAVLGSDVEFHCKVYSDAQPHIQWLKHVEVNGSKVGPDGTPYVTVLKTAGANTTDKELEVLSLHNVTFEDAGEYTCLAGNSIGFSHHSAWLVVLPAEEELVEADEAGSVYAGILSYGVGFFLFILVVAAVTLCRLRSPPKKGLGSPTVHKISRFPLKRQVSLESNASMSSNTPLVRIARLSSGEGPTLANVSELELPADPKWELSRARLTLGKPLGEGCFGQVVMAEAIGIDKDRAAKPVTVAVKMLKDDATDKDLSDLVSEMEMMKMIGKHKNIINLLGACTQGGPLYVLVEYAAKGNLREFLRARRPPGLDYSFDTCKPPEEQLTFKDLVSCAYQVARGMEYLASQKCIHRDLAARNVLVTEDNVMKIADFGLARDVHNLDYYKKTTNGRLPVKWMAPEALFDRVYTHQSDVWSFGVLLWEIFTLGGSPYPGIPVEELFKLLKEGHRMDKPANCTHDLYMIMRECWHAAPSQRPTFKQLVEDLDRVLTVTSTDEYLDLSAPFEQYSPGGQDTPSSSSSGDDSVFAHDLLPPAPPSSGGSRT
FGFR4, sequence (P22455 22-802): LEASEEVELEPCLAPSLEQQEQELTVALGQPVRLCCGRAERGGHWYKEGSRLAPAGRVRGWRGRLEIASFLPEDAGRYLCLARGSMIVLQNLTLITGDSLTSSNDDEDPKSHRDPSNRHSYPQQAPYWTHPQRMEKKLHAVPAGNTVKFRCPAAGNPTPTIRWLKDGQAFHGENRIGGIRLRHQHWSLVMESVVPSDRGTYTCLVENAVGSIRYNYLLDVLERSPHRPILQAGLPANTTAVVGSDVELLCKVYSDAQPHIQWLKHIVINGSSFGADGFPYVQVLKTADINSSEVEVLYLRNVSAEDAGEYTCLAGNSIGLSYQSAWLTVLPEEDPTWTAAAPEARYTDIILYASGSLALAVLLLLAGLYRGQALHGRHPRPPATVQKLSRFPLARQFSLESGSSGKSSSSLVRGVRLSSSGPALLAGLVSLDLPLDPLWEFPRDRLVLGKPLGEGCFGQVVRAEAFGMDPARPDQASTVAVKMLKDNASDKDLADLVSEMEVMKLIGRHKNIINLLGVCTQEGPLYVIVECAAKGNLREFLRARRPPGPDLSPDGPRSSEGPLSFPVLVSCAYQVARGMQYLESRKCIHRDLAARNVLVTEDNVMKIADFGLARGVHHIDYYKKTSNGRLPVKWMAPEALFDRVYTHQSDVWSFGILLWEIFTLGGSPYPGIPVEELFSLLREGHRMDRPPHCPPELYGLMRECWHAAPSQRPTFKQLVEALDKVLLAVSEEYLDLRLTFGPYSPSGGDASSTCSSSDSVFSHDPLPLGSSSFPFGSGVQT
FGFR2, sequence (P21802 22-821): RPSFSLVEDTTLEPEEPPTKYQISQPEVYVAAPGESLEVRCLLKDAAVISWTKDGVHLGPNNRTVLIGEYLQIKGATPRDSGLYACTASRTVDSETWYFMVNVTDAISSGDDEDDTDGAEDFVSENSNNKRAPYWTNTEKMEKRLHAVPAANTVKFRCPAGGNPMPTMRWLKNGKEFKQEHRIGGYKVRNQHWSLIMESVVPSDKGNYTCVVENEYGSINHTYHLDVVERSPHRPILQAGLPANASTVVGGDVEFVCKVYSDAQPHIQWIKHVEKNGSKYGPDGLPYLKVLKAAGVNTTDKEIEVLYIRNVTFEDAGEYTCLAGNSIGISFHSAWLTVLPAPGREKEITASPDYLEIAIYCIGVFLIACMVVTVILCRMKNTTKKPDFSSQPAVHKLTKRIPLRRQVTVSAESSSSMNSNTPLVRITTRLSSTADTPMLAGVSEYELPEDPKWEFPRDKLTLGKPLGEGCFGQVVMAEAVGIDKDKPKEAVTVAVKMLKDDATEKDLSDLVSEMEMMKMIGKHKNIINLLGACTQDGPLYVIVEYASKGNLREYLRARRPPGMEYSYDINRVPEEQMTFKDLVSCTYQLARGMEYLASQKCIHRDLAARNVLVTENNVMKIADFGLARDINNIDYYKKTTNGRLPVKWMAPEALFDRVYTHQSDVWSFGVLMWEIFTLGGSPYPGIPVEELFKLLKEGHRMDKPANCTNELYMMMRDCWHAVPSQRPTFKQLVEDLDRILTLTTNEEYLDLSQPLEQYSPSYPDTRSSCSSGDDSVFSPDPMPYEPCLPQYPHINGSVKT
FGFR1, sequence (P11362 22-822): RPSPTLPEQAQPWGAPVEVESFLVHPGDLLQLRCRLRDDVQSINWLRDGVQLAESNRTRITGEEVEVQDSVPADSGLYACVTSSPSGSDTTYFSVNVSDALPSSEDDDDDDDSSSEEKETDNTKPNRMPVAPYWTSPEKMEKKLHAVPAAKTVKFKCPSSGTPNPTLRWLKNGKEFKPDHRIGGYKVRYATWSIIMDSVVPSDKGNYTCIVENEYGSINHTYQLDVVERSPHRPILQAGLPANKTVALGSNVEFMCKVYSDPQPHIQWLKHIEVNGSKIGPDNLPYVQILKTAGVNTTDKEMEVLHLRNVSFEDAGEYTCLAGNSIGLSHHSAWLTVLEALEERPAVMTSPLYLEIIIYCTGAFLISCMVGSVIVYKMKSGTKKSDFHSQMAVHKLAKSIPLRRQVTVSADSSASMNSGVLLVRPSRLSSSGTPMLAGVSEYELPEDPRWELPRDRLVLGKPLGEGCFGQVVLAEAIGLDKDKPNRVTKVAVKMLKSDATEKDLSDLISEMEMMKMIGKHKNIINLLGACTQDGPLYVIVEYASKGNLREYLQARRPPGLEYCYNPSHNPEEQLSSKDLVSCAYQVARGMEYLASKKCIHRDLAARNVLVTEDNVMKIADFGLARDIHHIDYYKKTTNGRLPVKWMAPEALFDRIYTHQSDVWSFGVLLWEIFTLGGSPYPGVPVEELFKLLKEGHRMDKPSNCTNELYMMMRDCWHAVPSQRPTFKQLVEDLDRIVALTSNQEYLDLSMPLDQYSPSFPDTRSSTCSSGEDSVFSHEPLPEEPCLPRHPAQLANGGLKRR

Compound	IC50 [1]	IC50 [2]	IC50 [3]	IC50 [4]	IC50 [4, 5]
C=CC(=O)NCc1cc2c(cn1)CN(c1c(F)c(OC)cc(OC)c1F)C(=O)N2C1CCC1 [Example 25, N-((1-cyclobutyl-3-(2,6-difluoro-3,5-dimethoxyphenyl)-2-oxo-1,2,3,4-tetrahydropyrido[4,3-d]pyrimidin-7-yl)methyl)acrylamide]	> 200 nM	> 200 nM	> 200 nM	10 to 30 nM	
C=CC(=O)NCc1cc2c(cn1)CN(c1c(F)c(OC)cc(OC)c1F)C(=O)N2CC(F)(F)F [Example 21, N-((3-(2,6-difluoro-3,5-dimethoxyphenyl)-2-oxo-1-(2,2,2-trifluoroethyl)-1,2,3,4-tetrahydropyrido[4,3-d]pyrimidin-7-yl)methyl)acrylamide]	> 200 nM	> 200 nM	> 200 nM		< 10 nM
C=CC(=O)NCc1cc2c(cn1)CN(c1c(F)c(OC)cc(OC)c1F)C(=O)N2CC1CCN(S(C)(=O)=O)CC1 [Example 35, N-((3-(2,6-difluoro-3,5-dimethoxyphenyl)-1-((1-(methylsulfonyl)piperidin-4-yl)methyl)-2-oxo-1,2,3,4-tetrahydropyrido[4,3-d]pyrimidin-7-yl)methyl)acrylamide]	> 200 nM	> 200 nM	> 200 nM		< 10 nM
C=CC(=O)NCc1cc2c(cn1)CN(c1c(F)c(OC)cc(OC)c1F)C(=O)N2[C@H]1CCOC1 [Example 8, (S)—N-((3-(2,6-difluoro-3,5-dimethoxyphenyl)-2-oxo-1-(tetrahydrofuran-3-yl)-1,2,3,4-tetrahydropyrido[4,3-d]pyrimidin-7-yl)methyl)acrylamide]	> 200 nM	> 200 nM	> 200 nM		< 10 nM
C=CC(=O)NCc1cc2c(cn1)CN(c1c(F)c(OC)cc(OC)c1F)C(=O)N2CCC [Example 12, N-((3-(2,6-difluoro-3,5-dimethoxyphenyl)-2-oxo-1-propyl-1,2,3,4-tetrahydropyrido[4,3-d]pyrimidin-7-yl)methyl)acrylamide]	> 200 nM	> 200 nM	> 200 nM		< 10 nM
C=CC(=O)NCc1cc2c(cn1)CN(c1c(F)c(OC)cc(OC)c1F)C(=O)N2Cc1cccnc1 [Example 17, N-((3-(2,6-difluoro-3,5-dimethoxyphenyl)-2-oxo-1-(pyridin-3-ylmethyl)-1,2,3,4-tetrahydropyrido[4,3-d]pyrimidin-7-yl)methyl)acrylamide]	> 200 nM	> 200 nM	> 200 nM	10 to 30 nM	
C=CC(=O)NCc1ncc2c(c1C)C1(CC1)C(=O)N(c1c(F)c(OC)cc(OC)c1F)C2 [Example 37, N-((2′-(2,6-difluoro-3,5-dimethoxyphenyl)-5′-methyl-3′-oxo-2′,3′-dihydro-1′H-spiro[cyclopropane-1,4′-[2,7]naphthyridine]-6′-yl)methyl)acrylamide]	> 200 nM	> 200 nM	> 200 nM	10 to 30 nM	
C=CC(=O)NCc1cc2c(cn1)CN(c1c(F)c(OC)cc(OC)c1F)C(=O)N2C1CC(F)(F)C1 [Example 9, N-((3-(2,6-difluoro-3,5-dimethoxyphenyl)-1-(3,3-difluorocyclobutyl)-2-oxo-1,2,3,4-tetrahydropyrido[4,3-d]pyrimidin-7-yl)methyl)acrylamide]	> 200 nM	> 200 nM	> 200 nM	10 to 30 nM	
C=CC(=O)NCc1ncc2c(n1)C1(CC1)C(=O)N(c1c(F)c(OC)cc(OC)c1F)C2 [Example 4, N-((6′-(2,6-difluoro-3,5-dimethoxyphenyl)-7′-oxo-6′,7′-dihydro-5′H-spiro[cyclopropane-1,8′-pyrido[4,3-d]pyrimidine]-2′-yl)methyl)acrylamide]	> 200 nM	> 200 nM	> 200 nM	10 to 30 nM	
C=CC(=O)NCc1cc2c(cn1)CN(c1c(Cl)c(OC)cc(OC)c1Cl)C(=O)N2CC [Example 36, N-((3-(2,6-dichloro-3,5-dimethoxyphenyl)-1-ethyl-2-oxo-1,2,3,4-tetrahydropyrido[4,3-d]pyrimidin-7-yl)methyl)acrylamide]	> 200 nM	> 200 nM	> 200 nM		< 10 nM
C=CC(=O)NCc1cc2c(cn1)CN(c1c(F)c(OC)cc(OC)c1F)C(=O)N2C[C@@H]1CCOC1 [Example 31, (S)—N-((3-(2,6-difluoro-3,5-dimethoxyphenyl)-2-oxo-1-((tetrahydrofuran-3-yl)methyl)-1,2,3,4-tetrahydropyrido[4,3-d]pyrimidin-7-yl)methyl)acrylamide]	> 200 nM	> 200 nM	> 200 nM		< 10 nM
C=CC(=O)NCc1cc2c(cn1)CN(c1c(F)c(OC)cc(OC)c1F)C(=O)N2c1cccnc1 [Example 3, N-((3-(2,6-difluoro-3,5-dimethoxyphenyl)-2-oxo-1-(pyridin-3-yl)-1,2,3,4-tetrahydropyrido[4,3-d]pyrimidin-7-yl)methyl)acrylamide]	> 200 nM	> 200 nM	> 200 nM	10 to 30 nM	
C=CC(=O)NCc1cc2c(cn1)CN(c1c(F)c(OC)cc(OC)c1F)C(=O)N2c1ccccc1 [Example 6, N-((3-(2,6-difluoro-3,5-dimethoxyphenyl)-2-oxo-1-phenyl-1,2,3,4-tetrahydropyrido[4,3-d]pyrimidin-7-yl)methyl)acrylamide]	> 200 nM	> 200 nM	> 200 nM	10 to 30 nM	
C=CC(=O)NCc1cc2c(cn1)CN(c1c(F)c(OC)cc(OC)c1F)C(=O)N2C1CC1 [Example 10, N-((1-cyclopropyl-3-(2,6-difluoro-3,5-dimethoxyphenyl)-2-oxo-1,2,3,4-tetrahydropyrido[4,3-d]pyrimidin-7-yl)methyl)acrylamide]	> 200 nM	> 200 nM	> 200 nM	10 to 30 nM	
C=CC(=O)NCc1cc2c(cn1)CN(c1c(F)c(OC)cc(OC)c1F)C(=O)N2CC#N [Example 20, N-((1-(cyanomethyl)-3-(2,6-difluoro-3,5-dimethoxyphenyl)-2-oxo-1,2,3,4-tetrahydropyrido[4,3-d]pyrimidin-7-yl)methyl)acrylamide]	> 200 nM	> 200 nM	> 200 nM		< 10 nM
C=CC(=O)NCc1cc2c(cn1)CN(c1c(F)c(OC)cc(OC)c1F)C(=O)N2CCOC [Example 11, N-((3-(2,6-difluoro-3,5-dimethoxyphenyl)-1-(2-methoxyethyl)-2-oxo-1,2,3,4-tetrahydropyrido[4,3-d]pyrimidin-7-yl)methyl)acrylamide]	> 200 nM	> 200 nM	> 200 nM		< 10 nM
C=CC(=O)NCc1cc2c(cn1)CN(c1c(F)c(OC)cc(OC)c1F)C(=O)N2C(C)C [Example 15, N-((3-(2,6-difluoro-3,5-dimethoxyphenyl)-1-isopropyl-2-oxo-1,2,3,4-tetrahydropyrido[4,3-d]pyrimidin-7-yl)methyl)acrylamide]	> 200 nM	> 200 nM	> 200 nM		< 10 nM
C=CC(=O)NCc1cc2c(cn1)CN(c1c(F)c(OC)cc(OC)c1F)C(=O)N2CCF [Example 27, N-((3-(2,6-difluoro-3,5-dimethoxyphenyl)-1-(2-fluoroethyl)-2-oxo-1,2,3,4-tetrahydropyrido[4,3-d]pyrimidin-7-yl)methyl)acrylamide]	> 200 nM	> 200 nM	> 200 nM		< 10 nM
C=CC(=O)NCc1cc2c(cn1)CN(c1c(F)c(OC)cc(OC)c1F)C(=O)N2CC [Example 2, N-((3-(2,6-difluoro-3,5-dimethoxyphenyl)-1-ethyl-2-oxo-1,2,3,4-tetrahydropyrido[4,3-d]pyrimidin-7-yl)methyl)acrylamide]	> 200 nM	> 200 nM	> 200 nM		< 10 nM
C=CC(=O)NCc1cc2c(cn1)CN(c1c(F)c(OC)cc(OC)c1F)C(=O)N2CC(F)F [Example 14, N-((3-(2,6-difluoro-3,5-dimethoxyphenyl)-1-(2,2-difluoroethyl)-2-oxo-1,2,3,4-tetrahydropyrido[4,3-d]pyrimidin-7-yl)methyl)acrylamide]	> 200 nM	> 200 nM	> 200 nM		< 10 nM
C=CC(=O)NCc1cc2c(cn1)CN(c1c(F)c(OC)cc(OC)c1F)C(=O)N2c1ccn(C)n1 [Example 7, N-((3-(2,6-difluoro-3,5-dimethoxyphenyl)-1-(1-methyl-1H-pyrazol-3-yl)-2-oxo-1,2,3,4-tetrahydropyrido[4,3-d]pyrimidin-7-yl)methyl)acrylamide]	> 200 nM	> 200 nM	> 200 nM	10 to 30 nM	
